Measurements: patent US20220387544A1, “NOVEL THERAPEUTIC USE” (Artios Pharma Limited, priority 2019, published 2022)
Entries after “also recorded” stand apart in the source; their conditions may differ.

Assays:
Format in all cases: cell-based
DLD1 colon cancer cells = experiment: CRISPR-Cas9 KO synthetic lethality screen; conditions: compound at approximate EC20, 15 days, vs DMSO
Method: The CRISPR KO screen, sample preparation and data analysis were performed by Horizon Discovery using a CRISPR library against 1965 genes with 10 gRNA's per gene. DLD-1 colon cancer cells were grown in RPMI medium with 10% FBS, infected with the lentiviral library (each viral particle containing Cas9 and sgRNA), selected with puromycin for 2 weeks, and treated with compound B (EC17.1%) or DMSO for 15 days. Synthetic lethality scores were calculated by normalizing the sgRNA count from compound treated cells to DMSO treated control.
The synthetic lethal effect between Polθ inhibitor (Compound B) and knockout of any one of 1965 genes in DLD1 colon cancer cell line was assessed. A CRISPR KO screen was performed in DLD1 cells using compound B at an approximate EC20, using DMSO-exposed cells (the compound vehicle) as control. The quantity of cells containing each sgRNA was measured via next generation sequencing. (FIG. 5(a)) REV7 was in the Top 50 hits out of the […] genes screened, based on FDR score together with comparison to a validated synthetic lethal partner BRCA2. (b) Based on the log fold change, REV7 was in the top 25 hits. […] 7 out of 10 gRNA's were synthetic lethal with Polθ inhibition.

[1] = tested on: parental and C20orf196 KO SUM149 tumouroids; experiment: Tumouroid assay, parental vs C20orf196 KO SUM149
Method: (§1) Cells were seeded into a hydrogel containing 10% rat tail collagen (OcellO) in 384-well high content imaging microplates at varying densities to compensate for differential growth characteristics (Table 2).
(§2) 24 hours after seeding, test compounds and olaparib (Selleckchem) were added in an eight-point dose range with a one in three serial dilution (maximum concentration 12 μM for all compounds, except 30 μM compound A for REV7 KO cell experiments). Dimethyl sulfoxide (DMSO) and 1 μM staurosporine (Med Chem Express) treatments were included as negative and positive controls, respectively. All treatments were carried out in quadruplicate.
After seven or fourteen days of treatment for 20orf196 KO and REV7 KO experiments respectively, cells were fixed with 5× Fix & Stain solution (OcellO) for 16 hours at 4° C. to stain both the nuclei using Hoechst 33258 and the actin cytoskeleton using Rhodamine-Phalloidin. Cells were washed four times with phosphate-buffered saline (PBS), and plates were imaged and analysed using OcellO's three-dimensional image analysis software (Ominer). For each well, two channels of 16-bit image stacks were collected using an automated microscope system: Molecular Devices ImageXpress Micro XLS, equipped with a 4× magnification/0.2NA PlanApo objective. For each image slice (n=47), pixel size was 0.324 μm and step size in z-direction was 50 μm.
Parental or C20orf196 KO SUM149 cells were seeded into a collagen-containing hydrogel in 384-well plates and incubated overnight. The resulting tumouroids were treated with a serial dilution of Polθ inhibitor or olaparib for seven days, fixed, and stained to visualise DNA and F-actin. Plates were imaged, and tumouroid size was measured using OcellO's three-dimensional image analysis software.
Parental or C20orf196 KO SUM149 cells were seeded into a collagen-containing hydrogel in 384-well plates and incubated overnight. The resulting tumouroids were treated with a serial dilution of Polθ inhibitor or olaparib for seven days, fixed, and stained to visualise DNA and F-actin. Plates were imaged, and the number of nuclei per tumouroid was counted using OcellO's three-dimensional image analysis software.
Parental or C20orf196 KO SUM149 cells were seeded into a collagen-containing hydrogel in 384-well plates and incubated overnight. The resulting tumouroids were treated with Polθ inhibitor, olaparib or control compound (at the concentrations indicated) for seven days, fixed, and stained to visualise DNA and F-actin. Plates were imaged, and the fraction of nuclei without an associated actin cytoskeleton was calculated using OcellO's three-dimensional image analysis software.

[2] = tested on: parental and SHLD2 KO HCC1395 cells; experiment: Colony formation assay, HCC1395; conditions: SHLD2 KO vs parental HCC1395 cells, colony solubilisation protocol
Method: (§3) 1 mL of cells were seeded per well in a 24-well plate in triplicate and incubated overnight at 37° C. Cells were treated with a seven-point dose response curve with a one-in-three serial dilution of compound for the timepoints listed in Table 5. For MDA-MB-436 cells media was replenished every five days.
(§4) Cells were fixed with 70% ethanol for 20 minutes at room temperature with shaking. Cells were then stained with 0.04% Crystal Violet (Sigma Aldrich) for 20 minutes at room temperature with shaking. Cells were washed 6 times with water and air-dried overnight.
(§5) Plates were imaged using a Gelcount (Oxford Optronix), and colonies were counted using parameters optimized for each cell line. […] Colonies were solubilized using 10% acetic acid (VWR) for 30 minutes, absorbance at 595 nm was read using the Clariostar plate reader (BMG Labtech), and blank correction was applied. Relative Survival was calculated by normalization of compound treated wells to DMSO treated wells.
The effect of a DNA polymerase theta […] inhibitor (Compound A) and the PARP inhibitor olaparib on the survival of parental and SHLD2 deleted (SHLD2 KO) HCC1395 cells was investigated by colony formation assay. Briefly, each population was seeded at low density, incubated with different concentrations of the compound and the relative survival normalized to untreated cells was measured with the colony solubilisation protocol.

[3] = tested on: Parental and REV7 KO SUM149 cells; experiment: Clonogenic survival assay (ICR), SUM149 REV7 KO clones; conditions: REV7 KO clones vs parental SUM149, 14 days
Method: (§6) Clonogenic survival assays were performed as previously described (Edwards et al Nature (2008) 451, 1111-1115; Farmer et al Nature (2005) 434, 917-921). For measurement of sensitivity to Compound A inhibitor, exponentially growing cells were seeded in six-well plates at a concentration of 1000-2000 cells per well. For Compound A, cells were continuously exposed to the drug with media and drug replaced every 72 h. After 14 days, cells were fixed and stained with sulphorhodamine-B (Sigma) and colonies were counted. SFs were calculated and drug sensitivity curves plotted as previously described (Farmer et al Nature (2005) 434, 917-921).
Parental or REV7 KO SUM149 cells were seeded into 6 well plates and incubated overnight. The cells were then treated with a serial dilution of Polθ inhibitor or olaparib for 14 days, fixed, and stained with sulphorhodamine B. The colonies in each well were counted and normalised survival data plotted to generate a dose-response curve.

[4] = tested on: parental and SHLD2 KO MDA-MB-436 cells; experiment: Colony formation assay, MDA-MB-436; conditions: SHLD2 KO vs parental MDA-MB-436 cells, colony solubilization protocol
Method: as §3, §4, §5
The effect of a DNA polymerase theta (Polθ) inhibitor (Compound A) and the PARP inhibitor olaparib on the survival of parental and SHLD2 deleted (SHLD2 KO) MDA-MB-436 cells was investigated by colony formation assay. Briefly, each population was seeded at low density, incubated with different concentrations of the compound and the relative survival normalized to untreated cells was measured with the colony solubilization protocol.

[5] = tested on: parental and REV7 KO 22Rv1 cells; experiment: Colony formation assay, 22Rv1; conditions: REV7 KO vs REV7 wild type parental 22Rv1 cells, 2 weeks
Method: as §3, §4
Plates were imaged using a Gelcount (Oxford Optronix), and colonies were counted using parameters optimized for each cell line. 22Rv1 viability curves were generated from the colony counts alone. MDA-MB-436 and […] viability curves were generated from solubilized colonies. Colonies were solubilized using 10% acetic acid (VWR) for 30 minutes, absorbance at 595 nm was read using the Clariostar plate reader (BMG Labtech), and blank correction was applied. Relative Survival was calculated by normalization of compound treated wells to DMSO treated wells.
The effect of a DNA polymerase theta (Polθ) inhibitor (Compound A) or the PARP inhibitor olaparib on the survival of parental (REV7 wild type) or REV7 deleted (REV7 KO) 22Rv1 cells was investigated in colony formation assays (CFA—see protocol above). […]

[6] = tested on: Shieldin-defective, PARPi-resistant SUM149 cells; experiment: Re-sensitisation to olaparib; conditions: deletion of C20orf196 or 53BP1 or expression of BRCA1 in SUM149; olaparib 1 μM 10 days
Method: For measurement of re-sensitisation to Olaparib, exponentially growing cells were exposed to Compound A for 48 hours. After, cells were seeded in 96-well plates at a concentration of 1000-2000 cells per well. 24 hours post-seeding, Olaparib treatment was initiated and cells were continuously exposed to the drug with media and drug replenished every 72 hours. After 10 days, cell viability was estimated using Cell-Titre Glo (Promega). SFs were calculated and drug sensitivity curves plotted as previously described (Farmer et al Nature (2005) 434, 917-921).
Briefly, parental SUM149 cells or derivatives with either BRCA1 restored or with genetic deletion of either C20orf196 or 53BP1 were treated with Compound A in a tissue culture flask for 48 hours. The cells were then washed before seeding at low density in 96 well plates. 24 hours post seeding, cells were incubated with either olaparib or DMSO for a further 10 days. The relative survival normalised to untreated cells was measured using Cell-Titre Glo.

[7] = tested on: SUM149 Parental and C20orf196 KO SUM149 cells; experiment: Clonogenic survival assay (ICR), SUM149 C20ORF196 KO clones
Method: as §6
Parental or C20orf196 KO SUM149 cells were seeded into 6 well plates and incubated overnight. The cells were then exposed to a serial dilution of Polθ inhibitor or olaparib for 14 days, fixed, and stained with sulphorhodamine B. The colonies in each well were counted and normalised survival data plotted to generate a dose-response curve, as described before.

[8] = tested on: parental and REV7 KO SUM149 tumouroids; experiment: Tumouroid assay, parental vs REV7 KO SUM149; conditions: fourteen days treatment
Method: as §1, §2
After seven or fourteen days of treatment for 20orf196 KO and REV7 KO experiments respectively, cells were fixed with 5× Fix & Stain solution (OcellO) for 16 hours at 4° C. to stain both the nuclei using Hoechst 33258 and the actin cytoskeleton using Rhodamine-Phalloidin. Cells were washed four times with phosphate-buffered saline (PBS), and plates were imaged and analysed using OcellO's three-dimensional image analysis software (Ominer). […]
Parental or REV7 KO SUM149 cells were seeded into a collagen-containing hydrogel in 384-well plates and incubated overnight. […] Plates were imaged, and the fraction of nuclei without an associated actin cytoskeleton was calculated using OcellO's three-dimensional image analysis software.

[9] = in C20orf196 KO cells when compared with olaparib
[10] = C20orf196 KO vs parental SUM149 tumouroids, seven days treatment

Compound	REV7 gRNA's synthetic lethal with Polθ inhibition, out of 10 (DLD1 colon cancer cells)	position of REV7 among hits based on log fold change (DLD1 colon cancer cells)	cell death [1, 9]	reduction in the number of nuclei per tumoroid [1, 9]	reduction in tumoroid size [1, 9]	sensitivity by relative survival [2]	sensitivity by reduction in number of colonies [3]	sensitivity by relative survival [4]	sensitivity by relative survival (colonies) [5]	resistance to olaparib [6]	cell death (fraction of dead cells) ([1]; C20orf196 KO vs parental SUM149 tumouroid cultures, seven days treatment)	sensitivity by reduction in number of nuclei per tumouroid [1, 10]	sensitivity by reduction in tumouroid size [1, 10]	sensitivity by reduction in number of colonies ([7]; C20orf196 KO clones vs parental SUM149, 14 days)	sensitivity of parental SUM149 cells ([7]; parental SUM149 (BRCA1 mutation), 14 days)	cell death (fraction of dead cells) [8]
Cc1cccc(N(C)C(=O)[C@@H]2C[C@H](O)CN2c2nc(C)cc(C(F)(F)F)c2C#N)c1 [Compound B, (2S,4S)-1-(3-cyano-6-methyl-4-(trifluoromethyl)pyridin-2-yl)-4-hydroxy-N-methyl-N-(m-tolyl)pyrrolidine-2-carboxamide]	7	≤ 25	significantly more cell death	greater reduction in the number of nuclei per tumoroid	greater reduction in tumoroid size	–	–	–	–	–	–	–	–	–	–	–
O=C(c1cc(Cc2n[nH]c(=O)c3ccccc23)ccc1F)N1CCN(C(=O)C2CC2)CC1 [olaparib, reference compound]	–	–	–	–	–	significantly more resistant	resistance; also recorded: more resistant	trend for increased resistance	still retain resistance	induces resistance; also recorded: marked resistance	significantly less cell death	less sensitive	less sensitive	more resistant	hypersensitive	less cell death
